Values quoted from earlier work, collected in paper PMC11336009 (GeroScience, 2024).

Tests used:
Details in all cases: cited from earlier work
[1] = tested on: diabetic mice after ischemic stroke; design: method as in PMID 24821550
rat rotenone model of PD = tested on: rat rotenone model of PD
[2] = tested on: rat 3-nitropropionic acid (3NP) model; design: method as in PMID 31728850

## CC#CCn1c(N2CCC[C@@H](N)C2)nc2c1c(=O)n(Cc1nc(C)c3ccccc3n1)c(=O)n2C [linagliptin]
[1]
  Neural stem cell proliferation after ischemic stroke: augment neural stem cell proliferation

## liraglutide (HAEGTFTSDVSSYLEGQAAKEFIAWLVRGRG; chains of the INN, looked up) [GLP-1R agonist]
Rat rotenone model of PD
  Effects in rat rotenone model of PD: mitigated motor deficits, striatal DA loss, SNc dopaminergic neuronal degeneration and neuroinflammation

## N#C[C@@H]1CCCN1C(=O)CNC12CC3CC(CC(O)(C3)C1)C2 [Vildagliptin]
Rat rotenone model of PD
  Effects in rat rotenone PD model: mitigate striatal DA loss, neuroinflammation and motor deficits
[2]
  Effects in striatum of rat 3NP model of late-stage Huntington's disease: reduce neuronal degeneration and markers of oxidative stress

## N#C[C@@H]1C[C@@H]2C[C@@H]2N1C(=O)[C@@H](N)C12CC3CC(CC(O)(C3)C1)C2 [saxagliptin]
Rat rotenone model of PD
  Effects in rat rotenone PD model: preserve TH levels within the SNc and mitigate striatal declines in DA and TH levels

## Cn1c(=O)cc(N2CCC[C@@H](N)C2)n(Cc2ccccc2C#N)c1=O [alogliptin]
Rat rotenone model of PD; same effects as described for saxagliptin
  Effects in rotenone challenged PD rats: do the same
